Laboratory results published in US4535159A, “Process for producing 1-position amino-derivatives of 1-(3',4'-methylenedioxyphenyl)propane-2-ol” (Ferrer Internacional, S.A., priority 1981, dated 1985).

Columns and labels:
Swiss male mice = experiment: Analgesic activity, phenylquinone test (Siegmund et al), oral administration in Swiss male mice; format: in vivo; conditions: Mus musculus
Description: (a) Analgesic activity.-Analgesic activity has been determined in Swiss male mice by orally administering the compounds according to the phenylquinone test, as described by Siegmund et al (Proc. Soc.Exp.Biol.Med., 95, 729, 1957). From the analgesia values obtained, the ED50 for each compound has been calculated.

[1] = Acute toxicity, oral administration in female and male Swiss mice (Reed-Muench method as modified by Pizzi); conditions: mouse, in vivo
Description: (b) Acute toxicity.-Acute toxicity has been determined in both female and male Swiss mice by oral administration according to the method by Reed-Muench as modified by Pizzi (Human Biology, 22(3), 151-190, 1950).

| Structure (SMILES) | ED50 (Swiss male mice) [mg/kg] | LD50 [1] [mg/kg] |
| --- | --- | --- |
| Cc1c(N(C)C)c(=O)n(-c2ccccc2)n1C [Aminophenazone, reference compound] | 23.4 |  |
| CC(=O)Oc1ccccc1C(=O)O [Acetylsalicylic acid, reference compound] | 72 |  |
| C[C@H](O)[C@@H](c1ccc2c(c1)OCO2)N1CCOCC1 (relative stereo) [Example 2, d,l-erythro-1-(3',4'-methylenedioxyphenyl)-1-morpholine-propane-2-ol] | 25.7 | 1200 |
| C[C@H](O)[C@@H](c1ccc2c(c1)OCO2)N1CCN(Cc2ccccc2)CC1 (relative stereo) [Example 3, d,l-erythro-1-(3',4'-methylenedioxyphenyl)-1-(4-benzyl-1-piperazinyl)propane-2-ol] | 29.7 | 256 |
| C[C@H](O)[C@@H](c1ccc2c(c1)OCO2)N(C)C1CCCCC1 (relative stereo) [Example 11, d,l-erythro-1-(3',4'-methylenedioxyphenyl)-1-(N-methylcyclohexylamino)-propane-2-ol] | 29.8 | 167 |
| C[C@H](O)[C@@H](c1ccc2c(c1)OCO2)N1CCCCC1 (relative stereo) [Example 5, d,l-erythro-1-(3',4'-methylenedioxyphenyl)-1-piperidinepropane-2-ol] | 33.3 | 277 |
| COc1ccc2c3c1O[C@H]1[C@@H](O)C=C[C@H]4[C@@H](C2)N(C)CC[C@@]341 [Codeine, reference compound] | 1.97 |  |
| C[C@H](O)[C@@H](c1ccc2c(c1)OCO2)N1CCCC1 (relative stereo) [Example 7, d,l-erythro-1-(3',4'-methylenedioxyphenyl)-1-pyrrolidinopropane-2-ol] | 140 | 599 |
| C[C@H](O)[C@H](NCc1ccccc1)c1ccc2c(c1)OCO2 (relative stereo) [Example 9, d,l-erythro-1-(3',4'-methylenedioxyphenyl)-1-benzylaminopropane-2-ol] | 28.8 | 252 |
| C[C@H](O)[C@@H](c1ccc2c(c1)OCO2)N(C)Cc1ccccc1 (relative stereo) [Example 10, d,l-erythro-1-(3',4'-methylenedioxyphenyl)-1-(N-methylbenzylamino)-propane-2-ol] | 33.8 | 360 |
| C[C@H](O)[C@H](NC1CC1)c1ccc2c(c1)OCO2 (relative stereo) [Example 12, d,l-erythro-1-(3',4'-methylenedioxyphenyl)-1-cyclopropylaminopropane-2-ol] | 62.3 | 780 |
| CCN(CC)[C@H](c1ccc2c(c1)OCO2)[C@H](C)O (relative stereo) [Example 4, d,l-erythro-1-(3',4'-methylenedioxyphenyl)-1-diethylamino-propane-2-ol] | 107 | 317 |
| C[C@H](O)[C@@H](c1ccc2c(c1)OCO2)N1CCC(O)CC1 (relative stereo) [Example 6, d,l-erythro-1-(3',4'-methylenedioxyphenyl)-1-(4-hydroxypiperidine)-propane-2-ol] | 109 | 1060 |
| C[C@H](O)[C@@H](c1ccc2c(c1)OCO2)N1CCCCCC1 (relative stereo) [Example 8, d,l-erythro-1-(3',4'-methylenedioxyphenyl)-1-homopiperidino-propane-2-ol] | 45.5 | 233 |
| C[C@H](O)[C@H](NC1CCCCC1)c1ccc2c(c1)OCO2 (relative stereo) [Example 13, d,l-erythro-1-(3',4'-methylenedioxyphenyl)-1-cyclohexylaminopropane-2-ol] | 31.7 | 245 |
